# Data taken from PMC3542538 (Journal of medicinal chemistry, 2012).
# “Also recorded” adds a separate entry of the source. Structures can show the parent of a compound that is named as a salt.
# Biological target: recombinant Tdp1 (Homo sapiens, UniProt Q9NUW8)
# Assay: not given
# Format: biochemical
# Settings: not given
# recombinant Tdp1, sequence (Q9NUW8 whole entry): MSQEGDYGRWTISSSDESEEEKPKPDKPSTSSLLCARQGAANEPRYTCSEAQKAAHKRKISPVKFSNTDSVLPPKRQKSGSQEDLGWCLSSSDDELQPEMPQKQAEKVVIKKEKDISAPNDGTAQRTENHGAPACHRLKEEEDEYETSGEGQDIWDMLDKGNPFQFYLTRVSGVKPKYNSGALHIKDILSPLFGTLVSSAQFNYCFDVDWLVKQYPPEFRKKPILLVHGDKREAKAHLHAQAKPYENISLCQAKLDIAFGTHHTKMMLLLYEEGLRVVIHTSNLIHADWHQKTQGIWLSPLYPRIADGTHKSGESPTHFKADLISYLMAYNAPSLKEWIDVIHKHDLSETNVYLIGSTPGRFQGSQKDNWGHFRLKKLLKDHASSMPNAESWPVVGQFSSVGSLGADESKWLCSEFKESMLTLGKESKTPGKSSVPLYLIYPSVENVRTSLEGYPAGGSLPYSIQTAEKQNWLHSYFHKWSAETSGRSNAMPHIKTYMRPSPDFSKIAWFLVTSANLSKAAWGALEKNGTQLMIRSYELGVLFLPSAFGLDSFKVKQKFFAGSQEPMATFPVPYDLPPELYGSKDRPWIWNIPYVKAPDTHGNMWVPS
row,SMILES,Tdp1 inhibitory activity (in words)
1,"CC(C)(C)OC(=O)NCCCn1c2c(c3ccc(NC(=O)CCC(=O)O)cc3c1=O)C(=O)c1ccccc1-2 [Compound 29, 4-[(6-(3-((tert-Butoxycarbonyl)amino)propyl)-5,11-dioxo-6,11-dihydro-5H-indeno[1,2-c]isoquinolin-3-yl)amino]-4-oxobutanoic Acid]",weakly active
2,"CC(C)(C)OC(=O)NCCCn1c2c(c3ccc(NC(=O)CCCCC(=O)O)cc3c1=O)C(=O)c1ccccc1-2 [Compound 31, 6-[(6-(3-((tert-Butoxycarbonyl)amino)propyl)-5,11-dioxo-6,11-dihydro-5H-indeno[1,2-c]isoquinolin-3-yl)amino]-6-oxohexanoic Acid]",weakly active
3,"COc1ccc2c(c1)-c1c(c3ccc([N+](=O)[O-])cc3c(=O)n1CCCn1ccnc1)C2=O [Compound 52, 6-(3-(1H-Imidazol-1-yl)propyl)-8-methoxy-3-nitro-5H-indeno[1,2-c]isoquinoline-5,11(6H)-dione]",very weak or inactive
4,"CCOC(=O)CNc1ccc2c3c(n(CCCN)c(=O)c2c1)-c1ccccc1C3=O.Cl [Compound 40, Ethyl 2-[(6-(3-Aminopropyl)-5,11-dioxo-6,11-dihydro-5H-indeno[1,2-c]isoquinolin-3-yl)amino]acetate Hydrochloride]",active
5,"Cn1c2c(c3ccc(NCC(=O)O)cc3c1=O)C(=O)c1ccccc1-2 [Compound 41, 2-[(6-Methyl-5,11-dioxo-6,11-dihydro-5H-indeno[1,2-c]isoquinolin-3-yl)amino]acetic Acid]",inactivity; also recorded: inactive
6,"COC(=O)C(=O)Nc1ccc2c3c(n(C)c(=O)c2c1)-c1ccccc1C3=O [Compound 9, Methyl 2-[(6-Methyl-5,11-dioxo-6,11-dihydro-5H-indeno[1,2-c]isoquinolin-3-yl)amino]-2-oxoacetate]",inactive
7,"COc1ccc2c(c1)-c1c(c3ccc([N+](=O)[O-])cc3c(=O)n1CCCBr)C2=O [Compound 49, 6-(3-Bromopropyl)-5,6-dihydro-8-methoxy-3-nitro-5,11-dioxo-11H-indeno[1,2-c]isoquinoline]",very weak or inactive
8,"COc1ccc2c(c1)-c1c(c3ccc([N+](=O)[O-])cc3c(=O)n1CCCN1CCOCC1)C2=O [Compound 53, 8-Methoxy-6-(3-morpholinopropyl)-3-nitro-5H-indeno[1,2-c]isoquinoline-5,11(6H)-dione]",very weak or inactive
9,"CC(C)(C)OC(=O)NCCCn1c2c(c3ccc(NC(=O)CCCC(=O)O)cc3c1=O)C(=O)c1ccccc1-2 [Compound 30, 5-[(6-(3-((tert-Butoxycarbonyl)amino)propyl)-5,11-dioxo-6,11-dihydro-5H-indeno[1,2-c]isoquinolin-3-yl)amino]-5-oxopentanoic Acid]",inactive
10,"CC(C)(C)OC(=O)NCCCn1c2c(c3ccc(NCC(=O)O)cc3c1=O)C(=O)c1ccccc1-2 [Compound 42, 2-((6-(3-((tert-Butoxycarbonyl)amino)propyl)-5,11-dioxo-6,11-dihydro-5H-indeno[1,2-c]isoquinolin-3-yl)amino)acetic Acid]",inactivity
11,"COc1ccc2c(c1)-c1c(c3ccc([N+](=O)[O-])cc3c(=O)n1CCCN=[N+]=[N-])C2=O [Compound 50, 6-(3-Azidopropyl)-5,6-dihydro-8-methoxy-3-nitro-5,11-dioxo-11H-indeno[1,2-c]isoquinoline]",very weak or inactive
12,"Cn1c2c(c3ccc(NC(=O)CC(=O)O)cc3c1=O)C(=O)c1ccccc1-2 [Compound 15, 3-[(6-Methyl-5,11-dioxo-6,11-dihydro-5H-indeno[1,2-c]isoquinolin-3-yl)amino]-3-oxopropanoic Acid]",inactive
13,"CCOC(=O)CNc1ccc2c3c(n(C)c(=O)c2c1)-c1ccccc1C3=O [Compound 38, Ethyl 2-[(6-Methyl-5,11-dioxo-6,11-dihydro-5H-indeno[1,2-c]isoquinolin-3-yl)amino]acetate]",inactivity; also recorded: inactive

# Biological target: T1, recombinant human Top1 (Homo sapiens, UniProt P11387)
# T1 sequence (P11387 1-765): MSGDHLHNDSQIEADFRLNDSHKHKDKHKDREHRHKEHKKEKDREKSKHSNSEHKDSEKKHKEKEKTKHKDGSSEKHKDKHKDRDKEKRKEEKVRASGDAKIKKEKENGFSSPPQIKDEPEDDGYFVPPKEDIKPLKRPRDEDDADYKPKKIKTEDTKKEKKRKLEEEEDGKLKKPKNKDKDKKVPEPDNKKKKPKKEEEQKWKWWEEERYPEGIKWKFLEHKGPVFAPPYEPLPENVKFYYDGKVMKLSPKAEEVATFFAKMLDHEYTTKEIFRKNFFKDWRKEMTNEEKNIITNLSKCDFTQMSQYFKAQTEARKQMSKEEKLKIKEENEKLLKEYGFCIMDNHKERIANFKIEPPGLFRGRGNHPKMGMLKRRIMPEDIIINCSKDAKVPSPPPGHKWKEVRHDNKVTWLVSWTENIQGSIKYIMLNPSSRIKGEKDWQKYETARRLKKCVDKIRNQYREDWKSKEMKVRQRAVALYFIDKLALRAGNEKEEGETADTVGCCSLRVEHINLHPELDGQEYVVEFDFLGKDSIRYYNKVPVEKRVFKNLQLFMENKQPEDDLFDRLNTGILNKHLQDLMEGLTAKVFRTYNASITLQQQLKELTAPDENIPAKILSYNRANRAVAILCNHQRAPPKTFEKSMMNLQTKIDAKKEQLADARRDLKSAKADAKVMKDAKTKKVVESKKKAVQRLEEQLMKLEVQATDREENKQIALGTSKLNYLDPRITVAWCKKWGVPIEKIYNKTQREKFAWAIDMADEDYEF
# Assay: Topoisomerase I-mediated DNA cleavage reactions
# Format: biochemical
# Settings: 100 μM
row,SMILES,suppression of Top1-mediated DNA cleavage at high drug concentration
1,"COc1ccc2c(c1)-c1c(c3ccc([N+](=O)[O-])cc3c(=O)n1CCCn1ccnc1)C2=O [Compound 52, 6-(3-(1H-Imidazol-1-yl)propyl)-8-methoxy-3-nitro-5H-indeno[1,2-c]isoquinoline-5,11(6H)-dione]",slight suppression; also recorded: does not
2,"COc1ccc2c(c1)C(=O)c1c-2n(CCCN(C)C)c(=O)c2cc(I)ccc12 [Compound 85, 3-Iodo-9-methoxy-6-(3-(Dimethylamino)propyl)-5H-indeno[1,2-c]isoquinoline-5,11(6H)-dione]",complete suppression; also recorded: suppress

# Tested on: single-stranded DNA substrate
# Assay: Surface plasmon resonance binding to single-stranded DNA substrate
# Settings: SPR
row,SMILES,binding to the single-stranded DNA substrate
1,Cn1c2c(c3ccc(NC(=O)C(=O)O)cc3c1=O)C(=O)c1ccccc1-2 [Compound 14],did not bind

# Tested on: all human cancer cell lines successfully tested
# Assay: cells
# Settings: read-out: MGM (mean graph midpoint GI50)
row,SMILES,GI50 [nM]
1,"NCCCn1c2c(c3ccc(NCC(=O)O)cc3c1=O)C(=O)c1ccccc1-2 [Compound 43, 2-((6-(3-Aminopropyl)-5,11-dioxo-6,11-dihydro-5H-indeno[1,2-c]isoquinolin-3-yl)amino)acetic Acid Hydrochloride]",870 ± 14
2,"COc1ccc2c(c1)C(=O)c1c-2n(CCCN)c(=O)c2cc(N)ccc12 [Compound 89, 3-Amino-6-(3-aminopropyl)-5,6-dihydro-9-methoxy-5,11-dioxo-11H-indeno[1,2-c]isoquinoline Dihydrochloride]",40
3,"COc1ccc2c(c1)-c1c(c3ccc([N+](=O)[O-])cc3c(=O)n1CCCn1ccnc1)C2=O [Compound 52, 6-(3-(1H-Imidazol-1-yl)propyl)-8-methoxy-3-nitro-5H-indeno[1,2-c]isoquinoline-5,11(6H)-dione]",20 ± 0.6
4,NCCCn1c2c(c3ccc(N)cc3c1=O)C(=O)c1ccccc1-2 [Compound 62],160
5,"COc1ccc2c(c1)-c1c(c3ccc([N+](=O)[O-])cc3c(=O)n1CCCN)C2=O [Compound 51, 6-(3-Aminopropyl)-5,6-dihydro-8-methoxy-3-nitro-5,11-dioxo-11H-indeno[1,2-c]isoquinoline Hydrochloride]",170 ± 17
6,"COC(=O)CC(=O)Nc1ccc2c3c(n(CCCN)c(=O)c2c1)-c1ccccc1C3=O [Compound 23, Methyl 3-[(6-(3-Aminopropyl)-5,11-dioxo-6,11-dihydro-5H-indeno[1,2-c]isoquinolin-3-yl)amino]-3-oxopropanoate]",1860
7,O=C1c2ccccc2-c2c1c1ccc([N+](=O)[O-])cc1c(=O)n2CCCO [Compound 63],890 ± 220
8,"COC(=O)C(=O)Nc1ccc2c3c(n(CCCN)c(=O)c2c1)-c1ccccc1C3=O [Compound 22, Methyl 2-[(6-(3-Aminopropyl)-5,11-dioxo-6,11-dihydro-5H-indeno[1,2-c]isoquinolin-3-yl)amino]-2-oxoacetate]",1860 ± 380
9,"COC(=O)CCCC(=O)Nc1ccc2c3c(n(CCCN)c(=O)c2c1)-c1ccccc1C3=O [Compound 25, Methyl 5-[(6-(3-Aminopropyl)-5,11-dioxo-6,11-dihydro-5H-indeno[1,2-c]isoquinolin-3-yl)amino]-5-oxopentanoate]",1090
10,CN(C)CCCn1c2c(c3ccc(C#N)cc3c1=O)C(=O)c1ccccc1-2 [Compound 74],300 ± 14
11,"COc1ccc2c(c1)C(=O)c1c-2n(CCCN)c(=O)c2cc(I)ccc12 [Compound 84, 6-(3-Aminopropyl)-5,6-dihydro-9-methoxy-3-iodo-5,11-dioxo-11H-indeno[1,2-c]isoquinoline]",250 ± 4
12,COc1ccc2c(c1)C(=O)c1c-2n(CCCN)c(=O)c2cc([N+](=O)[O-])ccc12 [Compound 54],20 ± 0.8
